Experimental data taken from ChEMBL document CHEMBL3638875, “Pyrazol-4-yl-heterocyclyl-carboxamide compounds and methods of use” (2014).

Key:
[1] = target: Serine/threonine-protein kinase pim-3 (Homo sapiens, UniProt Q86V86); assay: (§1) Binding Assay: PIM-1, -2, and -3 enzymes were generated as fusion proteins expressed in bacteria and purified by IMAC column chromatography (Sun, X., Chiu, J. F., and He, Q. Y. (2005) Expert Rev. Proteomics, 2:649-657). A fluorescent-labeled Pim-specific peptide substrate, was custom synthesized by American Peptide Company (Sunnyvale, Calif.). Reaction Buffer contained 10 mM HEPES, pH 7.2, 10 mM MgCl2, 0.01% Tween 20, 2 mM DTT. Termination Buffer contained 190 mM HEPES, pH 7.2, 0.015% Brij-35, 0.2% Coating Reagent 3 (Caliper Life Sciences, Hopkinton, Mass.), 20 mM EDTA. Separation Buffer contained 100 mM HEPES, pH 7.2, 0.015% Brij-35, 0.1% Coating Reagent 3, 1:200 Coating Reagent 8 (Caliper Life Sciences, Hopkinton, Mass.), 10 mM EDTA and 5% DMSO.
[2] = target: Serine/threonine-protein kinase pim-2 (Homo sapiens, UniProt Q9P1W9); assay: as §1, with “A” for “Binding Assay: PIM-1, -2, and -3 enzymes were generated as fusion proteins expressed in bacteria and purified by IMAC column chromatography (Sun, X., Chiu, J. F., and He, Q. Y. (2005) Expert Rev. Proteomics, 2:649-657). A”
Chain of Serine/threonine-protein kinase pim-2 (Q9P1W9 whole entry, the tested form may be a part): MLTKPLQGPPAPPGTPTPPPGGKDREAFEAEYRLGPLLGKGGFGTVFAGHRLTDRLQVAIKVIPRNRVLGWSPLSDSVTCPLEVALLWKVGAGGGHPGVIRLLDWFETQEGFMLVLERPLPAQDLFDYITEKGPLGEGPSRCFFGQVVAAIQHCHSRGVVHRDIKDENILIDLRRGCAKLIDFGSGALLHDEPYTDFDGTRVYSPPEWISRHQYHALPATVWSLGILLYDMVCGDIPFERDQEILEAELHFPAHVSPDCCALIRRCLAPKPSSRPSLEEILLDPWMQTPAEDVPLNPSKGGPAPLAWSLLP

Structure (SMILES): Cn1ncc(NC(=O)c2nc(Br)cnc2N)c1N1CCC[C@H](N)C1
- Ki [1]: 68.1 nM
- Ki [2]: 154 nM
